Measured values taken from EP0381335A1, “Antiviral agent and novel nucleoside” (TANABE SEIYAKU CO., LTD., priority 1989, dated 1990).
Where two headings read alike, the source gives them in different places.

Legend:
[1] = tested on: HIV; experiment: Anti-HIV assay: protection of HIV-infected MT-4 cells against cytopathic effect (trypan blue exclusion / MTT method); type: cell-based
Method: (§1) The anti-HIV activity of the agents that are subject of the present invention was measured according to the method of E. De Clercq et al. (The Journal of Virological Methods, 16 : 171 - 185 (1987) and The Journal of Virological Methods, 20 : 309-321 (1988)).
(§2) MT-4 cells of a 24 hours-old culture were suspended at 5 x 10⁵ cells per ml. Of this suspension, 2-ml portions were divided over polyisopropylene 2059 Falcon culture tubes (Becton Dickinson). The MT-4 cell suspensions were then centrifuged for 10 min at 140 x g and the supernatants were discarded. The MT-4 cell pellets were infected with 200 µl of a 1:5 HIV stock solution (titer 10³ CCID₅₀ ml; i.e., finally 10 CCID₅₀ well) in RPMI medium (composition as described above). Control MT-4 cell pellets were mock-infected with 200 µl RPMI medium. The culture tubes were then capsulated and subsequently incubated at 37 °C for 1.5 hours, upon which 1.8 ml of RPMI medium was added to each tube. The HIV-infected and mock-infected MT-4 cells were each pooled in two 45-ml centrifuge tubes.
(§3) Varying dilutions of the test compounds in RPMI medium were added in 100-µl volumes to the wells of a flat bottom, 96-well plastic microtiter tray (Sterilin Ltd. Teddington, Middlesex, England).
(§4) Of the HIV-infected or mock-infected MT-4 cell suspensions 100-µl volumes were added to the wells. The cell cultures were then incubated at 37 °C in a 5 % CO₂/95 % air humidified atmosphere. The cells remained in contact with the test compounds during the whole incubation period. Five days after infection the viability of the cells was examined microscopically in a hematocytometer by the trypan blue dye exclusion method.
(§5) Alternatively, viability of the cells was determined by the tetrazolium-based colorimetric method (MTT method) as described in the Journal of Virological Methods, 20 : 309 - 321 (1988).
(§6) Flat bottom, 96-well plastic mictrotiter trays (Falcon, Becton Dickinson, Mountain View, CA) were filled with 100 µl of complete medium using a Titertek® Multidrop dispenser (Flow Laboratories). This eight-channel dispenser could fill a microtiter tray in less than 10 s. Subsequently, stock solutions (10 x final test concentration) of compounds were added in 25 µl volumes to two series of triplicate wells so as to allow simultaneous evaluation of their effects on HIV- and mock-infected cells. Serial five-fold dilutions were made directly in the microtiter trays using an eight-channel Titertek® pipette (FLow Laboratories). Untreated control HIV- and mock-infected cell samples were included for each compound.
(§7) Exponentially growing MT-4 cells were centrifuged for 10 min at 140 x g and the supernatants were discarded. The pellet was either infected with 100 CCID₅₀ or mock-infected. The MT-4 cells were resuspended at 4 x 10⁵ cells/ml in two flasks which were connected with an autoclavable dispensing cassette of a Titertek® Multidrop dispenser. Under slight magnetic stirring 100-µl volumes were then transferred to the microtiter tray wells. The outer row wells were filled with 100 µl of medium. The cell cultures were incubated at 37 °C in a humidified atmosphere of 5 % CO₂ in air. The cells remained in contact with the test compounds during the whole incubation period. Five days after infection the viability of mock- and HIV infected cells was examined either microscopically in a hemacytometer by the trypan blue exclusion method or spectrophotometrically by the MTT method.
(§8) The MTT method is based on the reduction of the yellow coloured 3-(4,5-dimethylthiazol-2-yl)-2,5-diphenyltetrazolium bromide (MTT) (Sigma Chemical Co., St. Louis, MO) by mitochondrial dehydrogenases of metabolically active cells to a blue formazan which can be measured spectrophotometrically. Therefore, to each well of the microtiter trays, 20 µl of a solution of MTT (7.5 mg/ml) in phosphate-buffered saline was added using the Titertek® Multidrop. The trays were further incubated at 37 °C in a CO₂ incubator for the indicated times. […]

[2] = tested on: MT-4 cells; experiment: Cytotoxicity in mock-infected MT-4 cells (trypan blue exclusion / MTT method); type: cell-based; settings: for HIV (µM) TD₅₀: human, 5 days
Method: as §1, §2, §3, §4, §5, §6, §7, §8

[3] = Human immunodeficiency virus 1, MT4, effective amount necessary for permitting the cells infected with HIV to live to the 5th day after infection, read-out: ED₅₀
[4] = Human immunodeficiency virus 1, MT4, 120 h, HIV-infected MT-4 cells, five days after infection, MTT method, dose achieving 50 % protection, read-out: HIV (µM) ED₅₀

Structure (SMILES)	EC50 [1, 3] [µM]	cytotoxicity ([2]; at the concentration of 500 µM)	cytotoxicity ([2]; at the concentration of 125 µM)	EC50 [1, 4] [µM]	HIV (µM) TD₅₀ [2] [µM]
NO[C@H]1C[C@H](n2ccc(N)nc2=O)O[C@@H]1CO [3′-O-amino-2′-deoxycytidine]	61	no cytotoxicity appeared			
Cc1cn([C@H]2C[C@H](ON)[C@@H](CO)O2)c(=O)[nH]c1=O [3′-O-aminothymidine]	23		only slight cytotoxicity appeared		
Cc1cn([C@H]2C[C@H](ONC=O)[C@@H](CO)O2)c(=O)[nH]c1=O [compound 1, 3′-O-formamidothymidine]				13	144
C=NO[C@H]1C[C@H](n2cc(C)c(=O)[nH]c2=O)O[C@@H]1CO [compound 2, 3′-O-methylideneaminothymidine]				17	106
CC(C)=NO[C@H]1C[C@H](n2cc(C)c(=O)[nH]c2=O)O[C@@H]1CO [compound 3, 3′-O-isopropylideneaminothymidine]				32	313
NO[C@H]1C[C@H](n2cnc3c(N)ncnc32)O[C@@H]1CO [compound 4, 9-(3-O-amino-2-deoxy-β-D-erythro-pentofuranosyl)adenine]	32			32	1000
NO[C@H]1C[C@H](n2cnc3c(=O)[nH]c(N)nc32)O[C@@H]1CO [compound 5, 9-(3-O-amino-2-deoxy-β-D-erythro-pentofuranosyl)guanine]				2.17	74.03
